Where a SMILES comes first, the peptide text is derived from it. Bridges are numbered along the chain shown (N, C = ends). [ ]: non-standard residue; d: D form. S5 = C=CCCC[C@](C)(N)C(=O)O
Legend:
GTPase KRas [1] = target: GTPase KRas (Homo sapiens, UniProt P01116, G12V); experiment: Binding affinity to GDP-bound KRAS G12V RAS mutant (unknown origin)
GTPase HRas = GTPase HRas (Homo sapiens, UniProt P01112); experiment: Inhibition of human p21 h-RAS assessed as reduction in C-Cdc25 stimulated nucleotide exchange by luminescence spectrometer based analysis
Sequence of GTPase HRas (P01112 whole entry): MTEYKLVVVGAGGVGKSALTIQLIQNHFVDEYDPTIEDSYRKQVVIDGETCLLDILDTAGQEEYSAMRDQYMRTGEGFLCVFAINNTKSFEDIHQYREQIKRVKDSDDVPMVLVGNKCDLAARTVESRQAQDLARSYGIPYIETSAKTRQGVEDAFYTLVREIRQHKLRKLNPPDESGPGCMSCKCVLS

GTPase KRas [2] = target: GTPase KRas (Homo sapiens, UniProt P01116); experiment: Binding affinity to KRAS (unknown origin) assessed as dissociation constant
Sequence of GTPase KRas (Homo sapiens, UniProt P01116) (P01116 whole entry): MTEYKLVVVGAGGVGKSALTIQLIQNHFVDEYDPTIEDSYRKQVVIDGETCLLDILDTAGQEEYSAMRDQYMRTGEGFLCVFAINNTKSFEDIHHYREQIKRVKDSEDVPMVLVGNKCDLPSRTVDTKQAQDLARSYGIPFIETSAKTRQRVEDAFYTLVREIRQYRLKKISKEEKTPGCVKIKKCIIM

[3] = Lipophilicity, logP of the compound; format: physicochemical; conditions: octanol/water
HCT-116 = experiment: Antiproliferative activity against human HCT-116 cells harboring KRAS G13D mutant assessed as cell growth inhibition measured after 96 hrs by MTT assay; format: functional
[4] = Inhibition of human N-terminal His-tagged recombinant wild-type KRAS (1 to 156 residues) expressed in Escherichia coli BL21 (DE3)/SAH-SOS1A by fluorescence based polarization assay
GTPase KRas [5] = target: GTPase KRas (Homo sapiens, UniProt P01116, G12C); experiment: Inhibition of KRAS G12C mutant (unknown origin)
Sequence of GTPase KRas (Homo sapiens, UniProt P01116, G12C) (P01116 whole entry G12C): as the sequence (P01116 whole entry) above, with G12C counted along it

SW480 = experiment: Antiproliferative activity against human SW480 cells assessed as cell growth inhibition by CCK-8 assay relative to control; format: functional
[6] = Binding affinity to recombinant human KRAS (1 to 169 residues) expressed in Escherichia coli - recombinant human SOS1 (560 to 1049 residues) expressed in Escherichia coli assessed as dissociation constant

Sequence of GTPase KRas (Homo sapiens, UniProt P01116, G12V) (P01116 whole entry G12V): as the sequence (P01116 whole entry) above, with G12V counted along it

## O=S(=O)(c1ccc(NO)cc1)N(CCOc1ccc2ccccc2c1)[C@@H]1O[C@H](CO)[C@@H](O)[C@H](O)[C@H]1O
GTPase KRas [1]
  IC50: 0.7 µM

## O=S(=O)(NCCOc1ccc2ccccc2c1)c1ccc(NO)cc1
GTPase KRas [1]
  IC50: 0.5 µM
GTPase HRas
  IC50: 56 µM

## Cc1[nH]c2cc(Cl)cc(Cl)c2c1CCN
GTPase KRas [2]
  Kd: 1100 µM

## C=C1CC[C@@H]2[C@]3(C)COC(c4cccc(Br)c4)O[C@@H]3CC[C@@]2(C)[C@@H]1C/C=C1/C(=O)OC[C@H]1O (stereo partly specified)
[3]
  logP: 2.6

## C=C1CC[C@@H]2[C@]3(C)COC(c4ccc(F)c(Br)c4)O[C@@H]3CC[C@@]2(C)[C@@H]1C/C=C1/C(=O)OC[C@H]1O (stereo partly specified)
[3]
  logP: 2.6
HCT-116
  GI50: 4 µM

## CC[C@H](C)[C@H](NC(=O)CNC(=O)[C@H](Cc1ccccc1)NC(=O)[C@@H](N)Cc1ccccc1)C(=O)N[C@@H](Cc1ccc(O)cc1)C(=O)N[C@@H](CC(C)C)C(=O)N[C@H](C(=O)N[C@@H](CC(N)=O)C(=O)N[C@@]1(C)CCC/C=C\CCC[C@@](C)(C(=O)N[C@@H](CCC(=O)O)C(=O)NCC(=O)N[C@@H](CC(N)=O)C(=O)O)NC(=O)[C@H]([C@@H](C)O)NC(=O)[C@H](CCCCN)NC(=O)[C@H](CC(C)C)NC1=O)[C@@H](C)O
[4]
  EC50: 0.1 µM

## Nc1nc2c(ncn2CCN(CCOc2ccc3ccccc3c2)S(=O)(=O)c2ccc(NO)cc2)c(=O)[nH]1
GTPase KRas [1]
  IC50: 0.5 µM

## C=CC(=O)N1CCN(c2nc(NCCC(=O)N(C)C)nc3c(F)c(-c4cc(O)cc5ccccc45)c(Cl)cc23)CC1
GTPase KRas [5]
  IC50: 0.726 µM

## C=C1CC[C@@H]2[C@]3(C)COC(c4ccccc4Br)O[C@@H]3CC[C@@]2(C)[C@@H]1C/C=C1/C(=O)OC[C@H]1O (stereo partly specified)
[3]
  logP: 2.6
HCT-116
  GI50: 3.1 µM

## CC[C@H](C)[C@H](NC(=O)CNC(=O)[C@H](Cc1ccccc1)NC(=O)[C@@H](N)Cc1ccccc1)C(=O)N[C@@]1(C)CCC/C=C\CCC[C@@](C)(C(=O)N[C@@H](CC(C)C)C(=O)N[C@@H](CCCCN)C(=O)N[C@H](C(=O)N[C@@H](CCC(=O)O)C(=O)N[C@@H](CCC(=O)O)C(=O)NCC(=O)N[C@@H](CC(N)=O)C(=O)O)[C@@H](C)O)NC(=O)[C@H](CC(N)=O)NC(=O)[C@H]([C@@H](C)O)NC(=O)[C@H](CC(C)C)NC1=O
[4]
  EC50: 0.1 µM

## [O-][S+](NC[C@@H]1CC2O[C@H](OCc3ccccc3)[C@@H](OCc3ccccc3)C2O1)c1ccc(NO)cc1 (stereo partly specified)
GTPase HRas
  IC50: 35.5 µM

## CC[C@H](C)[C@H](NC(=O)[C@]1(C)CCC/C=C\CCC[C@](C)(NC(=O)CNC(=O)[C@H](Cc2ccccc2)NC(=O)[C@@H](N)Cc2ccccc2)C(=O)N[C@@H](Cc2ccc(O)cc2)C(=O)N[C@@H](CC(C)C)C(=O)N[C@@H]([C@@H](C)O)C(=O)N1)C(=O)N[C@@H](CC(C)C)C(=O)N[C@@H](CCCCN)C(=O)N[C@H](C(=O)N[C@@H](CCC(=O)O)C(=O)N[C@@H](CCC(=O)O)C(=O)NCC(=O)N[C@@H](CC(N)=O)C(=O)O)[C@@H](C)O
[4]
  EC50: 0.1 µM

## Cc1ccc(NC(=S)NNc2c([N+](=O)[O-])cc(C(F)(F)F)cc2[N+](=O)[O-])cc1Cl
SW480
  inhibition (INH): 66.3%

## CC[C@H](C)[C@@H]1NC(=O)CNC(=O)[C@@](C)(NC(=O)[C@@H](N)Cc2ccccc2)CCC/C=C\CCC[C@@](C)(C(=O)N[C@H](C(=O)N[C@@H](C)C(=O)N[C@H](C(=O)N[C@@H](CC(C)C)C(=O)N[C@@H](CCCCN)C(=O)N[C@H](C(=O)N[C@@H](CCC(=O)O)C(=O)N[C@@H](CCC(=O)O)C(=O)NCC(=O)N[C@@H](CC(N)=O)C(=O)O)[C@@H](C)O)[C@@H](C)CC)[C@@H](C)O)NC(=O)[C@H](Cc2ccc(O)cc2)NC1=O (H-F[S5]GIY[S5]TAILKTEEGN-OH; staple (Z) 2-6)
[4]
  EC50: 0.1 µM

## C=C1CC[C@@H]2[C@](C)(CO)[C@H](O)CC[C@@]2(C)[C@@H]1C/C=C1/C(=O)OC[C@H]1O [ANDROGRAPHOLIDE]
HCT-116
  GI50: 4.5 µM

## CNCc1ccccc1-c1csc([C@@H](C)Nc2nc(C)nc3cc(OC)c(OC)cc23)c1 [BAY-293]
[6]
  Kd: 0.036 µM

## c1ccc2[nH]cnc2c1 [BENZIMIDAZOLE]
GTPase KRas [2]
  Kd: 1500 µM

## CNC(=O)c1cc(Oc2ccc(NC(=O)Nc3ccc(Cl)c(C(F)(F)F)c3)cc2)ccn1 [SORAFENIB]
SW480
  inhibition (INH): 83.8%

Reference: ChEMBL document CHEMBL5149962, “Targeting KRAS mutant cancers by preventing signaling transduction in the MAPK pathway” (Eur J Med Chem, 2021)
